Tests used:
Solubility in water = type: physicochemical; conditions: pH<3.5 (the pH of gastric fluid)
[1] = Preclinical oral studies in dogs; type: in vivo
[2] = test system: patients with PD and constipation; assay: Phase 2 trial Stage 2: daily oral dosing, bowel function / stool related indices; type: in vivo, human
Procedure: Following successful screening, all subjects underwent a 14-day run-in period where the degree of constipation was assessed through a validated daily log (Zinsmeister et al. 2013) establishing baseline CSBMs/week. Subjects with an average of <3 CSBMs/week proceeded to dosing.
In Stage 2, 34 patients were evaluated.
The primary efficacy outcome variable was whether or not a subject was a “success” or “failure”. This is an endpoint based on subject diary entries for the “fixed dose” period prior to the endpoint assessment defined as average complete stool frequency increase by 1 or more over baseline, or 3 or more complete spontaneous stools/week. The subject was deemed a “success” if s/he met one or more of the criteria listed above, otherwise the subject was deemed a “failure”. The primary analysis was based on all subjects with a baseline assessment and an assessment at the end of the “fixed-dose” period and was a comparison of the proportion of successes with 0.10 (the null hypothesis corresponding to no treatment effect).

WT and A53T mice = assay: In vivo fecal pellet output test; design: species or system mouse; conditions: for FPO in the first 15 min: Day 5 vs Day 0
Procedure: In vivo fecal pellet output: Mice were subjected to the FPO test 1 day prior to the start of dosing with squalamine or vehicle (sterile water) (day 0). Mice were fasted for one hour and then given access to food one hour before FPO testing. On days 1-5 mice were fasted for one hour prior to oral gavage with vehicle or 20, 40, 80, or 120mg/kg squalamine. Oral gavage occurred between 10:00 to 11:00 am daily. On day 5, the FPO test was performed 1 hour after the final dose was administered. Total number of stool pellets produced in the first 15 min and over a 60 min period was measured in each group. Stool water content was measured by comparing wet and dry weights of the stool.

[3] = test system: myenteric intrinsic primary afferent neurons (IPANs); assay: Whole-cell patch clamp, divided hemi-dissection preparation, FVB PD mice; type: cell-based, mouse; conditions: for decrease in sAHP area under the curve / depolarisation of RMP / increase in number of APs at 2× threshold intensity / number of APs at 2× threshold intensity / AP threshold / sAHP area under the curve / RMP: FVB PD
Procedure: Whole-cell Patch Clamp: Whole-cell patch clamp was performed on a hemi-dissected myenteric plexus preparation as previously described. […]
Myenteric Primary Afferent Neuron Excitation: Squalamine excites myenteric primary afferent neurons. The effect of squalamine on the excitability of an isolated intestinal segment from the FVB PD mouse was explored using divided hemi-dissection preparations so that neurons are exposed for only half the area of an opened small intestinal segment. In this experiment, the inquiry was whether squalamine influenced the activity of the IPAN through direct interaction or indirectly, by stimulating release of epithelial mediators that influenced IPAN behaviour. Addition of squalamine (30 μM) to Krebs buffer in either the epithelial or the myenteric plexus compartments of the divided hemi-dissection preparation increased IPAN excitability (FIG. 12A-F). […] Addition of squalamine decreased the area under the curve of the sAHP by 77% from 86.8±88.2 to 20.3±25.3 mV.s, and depolarised RMP by 12% from −62±7 to −54±6 mV.

[4] = test system: patients with PD and constipation; assay: Phase 2 trial: circadian rhythm of wrist skin temperature; type: in vivo, human; conditions: fixed dose vs baseline, 12 patients
Procedure: Assessments were made at baseline and at the end of the fixed dose and washout periods. Circadian system status was evaluated by continuously monitoring wrist skin temperature (Thermochron iButton DS1921H; Maxim, Dallas) following published procedures (Sarabia et al. 2008).
Circadian rhythm of skin temperature was evaluable in 12 patients (i.e., those who had recordings that extended from baseline through washout). Circadian system functionality was evaluated by continuously monitoring wrist skin temperature using a temperature sensor (Thermochron iButton DS1921H; Maxim, Dallas, TX) (Sarabia et al. 2008). A nonparametric analysis was performed for each participant to characterize DST as previously described (Sarabia et al. 2008; Ortiz-Tudela et al. 2010).
Briefly, this analysis includes the following parameters: (i) the inter-daily stability (the constancy of 24-hour rhythmic pattern over days, IS); (ii) intra-daily variability (rhythm fragmentation, IV); (iii) average of 10-minute intervals for the 10 hours with the minimum temperature (L10); (iv) average of 10-minute intervals for the 5 hours with the maximum temperature (M5) and the relative amplitude (RA), which was determined by the difference between M5 and L10, divided by the sum of both. Finally, the Circadian Function Index (CFI) was calculated by integrating IS, IV, and RA. Consequently, CFI is a global measure that oscillates between 0 for the absence of circadian rhythmicity and 1 for a robust circadian rhythm (Ortiz-Tudela et al. 2010).

[5] = 30 μM added to the myenteric plexus

CC(C)[C@@H](CC[C@@H](C)[C@H]1CC[C@H]2[C@@H]3[C@H](O)C[C@H]4C[C@@H](NCCCNCCCCN)CC[C@]4(C)[C@H]3CC[C@]12C)OS(=O)(=O)O (single isomer, unassigned) [squalamine (ENT-01), squalamine]
solubility in water (Solubility in water): readily dissolves | tolerability [1]: well tolerated | CSBM ([2]; Stage 2, wash-out, mean (SD), baseline 1.2 (0.90)): 1.8 (1.19) | SBM ([2]; Stage 2, wash-out, mean (SD), baseline 2.6 (1.45)): 3.2 (1.80) | response rate (CSBM within 24 hours on at least 2 of 3 days) ([2]; Stage 2 daily dosing, 75 mg): 26% | decrease in use of rescue medication ([2]; fixed dose vs baseline): 83% | improvement in SBM ([2]; fixed dose vs baseline): 73% | improvement in consistency (Bristol stool scale) ([2]; fixed dose vs baseline): 52% | improvement in ease of passage ([2]; fixed dose vs baseline): 16% | FPO in the first 15 min (WT and A53T mice; A53T mice, 20, 40 and 80 mg/kg oral gavage for 5 days): significantly increased | fecal water content (WT and A53T mice; A53T mice, 80 and 120 mg/kg oral): significantly increased | fecal water content (WT and A53T mice; WT mice, 80 mg/kg oral): significantly increased | FPO in the first 15 min (WT and A53T mice; WT mice, 40 and 120 mg/kg oral gavage for 5 days): significantly increased | decrease in sAHP area under the curve ([3]; 30 μM added to the epithelium): 77% | depolarisation of RMP ([3]; 30 μM added to the epithelium): 12% | increase in number of APs at 2× threshold intensity ([3]; 30 μM added to the epithelium): 87% | decrease in AP threshold ([3]; 30 μM added to the epithelium, FVB PD mouse (N=15)): 44% | number of APs at 2× threshold intensity ([3]; 30 μM added to the epithelium, before 1.6±0.6): 3.1±0.7 | AP threshold ([3]; 30 μM added to the epithelium, before 63.7±50.4): 35.7±22.3 pA | sAHP area under the curve ([3]; 30 μM added to the epithelium, before 86.8±88.2): 20.3±25.3 mV.s | RMP ([3]; 30 μM added to the epithelium, before −62±7): −54±6 mV | decrease in sAHP area under the curve [3, 5]: 87% | depolarisation of RMP [3, 5]: 13% | increase in number of APs at 2× threshold intensity [3, 5]: 214% | decrease in AP threshold ([3]; 30 μM added to the myenteric plexus, FVB PD mouse (N=5)): 37% | number of APs at 2× threshold intensity ([3]; 30 μM added to the myenteric plexus, before 1.4±0.5): 4.4±2.8 | AP threshold ([3]; 30 μM added to the myenteric plexus, before 46.0±31.3): 29.0±10.1 pA | RMP ([3]; 30 μM added to the myenteric plexus, before −63±4): −55±6 mV | sAHP area under the curve ([3]; 30 μM added to the myenteric plexus, before −71.9±60.1): -9.6±15.1 mV.s | relative amplitude (RA) ([4]; p=0.001): increasing | circadian function index (CFI) ([4]; p=0.016): increasing | rhythm stability (IS) ([4]; p=0.026): increasing | rhythm fragmentation (IV) ([4]; p=0.031): reducing

— patent US20200038413A1, “METHODS OF TREATING PARKINSON'S DISEASE USING AMINOSTEROL COMPOSITIONS” (Enterin, Inc., priority 2018, published 2020)
